Experimental data published in patent publication US20110230481A2, “DERIVATIVES OF TETRABROMOBENZIMIDAZOLE, A PROCESS FOR THE PREPARATION THEREOF, A PHARMACEUTICAL COMPOSITION COMPRISING THE SAME, A METHOD OF USING THE SAME, A METHOD FOR MODULATING OR REGULATING SERINE/THREONINE KINASES, AND SERINE/THREONINE KINASES MODULATING AGENT” (SELVITA S.A., priority 2009, published 2011).

Columns and labels:
Experiment in all cases: KINOMEscan Max
Assay type in all cases: binding
BMPR1A = target: T1, BMPR1A (Homo sapiens, UniProt P36894)
T1 construct: DNA tag (qPCR label); purchased Ambit Kinomescan (contract screening)
Outline: (§1)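 Competitive displacement format with DNA-tagged human kinase and an immobilized active-site probe; detection by qPCR amplification of the kinase's DNA tag.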

CDK3 = CDK3 (Homo sapiens, UniProt Q00526); conditions: 1 μM
Outline: as §1

CDKL2 = target: T2, CDKL2 (Homo sapiens, UniProt Q92772)
T2 construct: purchased Ambit (KINOMEscan Max service)
Outline: as §1

CHEK2 = CHEK2 (Homo sapiens, UniProt O96017)
Outline: as §1

DAPK3 = DAPK3 (Homo sapiens, UniProt O43293)
Outline: as §1

DCAMKL3 = target: T3, DCAMKL3 (Homo sapiens, UniProt Q9C098)
T3 construct: purchased Ambit (KINOMEscan Max panel service)
Outline: as §1

EPHA5 = target: T4, EPHA5 (Homo sapiens, UniProt P54756); conditions: 1 μM
T4 construct: purchased Ambit (KINOMEscan Max panel service)
Outline: as §1

FGFR3(G697C) = target: T5, FGFR3(G697C) (Homo sapiens, UniProt P22607, G697C)
T5 construct: purchased Ambit Kinomescan (contract panel, KINOMEscan Max)
Outline: as §1

FGFR4 = target: T6, FGFR4 (Homo sapiens, UniProt P22455)
T6 construct: purchased Ambit (KINOMEscan Max service)
Outline: as §1

FLT3(D835H) = target: T7, FLT3(D835H) (Homo sapiens, UniProt P36888, D835H)
T7 construct: purchased Ambit (KINOMEscan Max service)
Outline: as §1

HIPK4 = target: T8, HIPK4 (Homo sapiens, UniProt Q8NE63)
T8 construct: DNA tag (qPCR read-out)
Outline: as §1

[1] = target: T9, JAK1(JH1domain-catalytic) (Homo sapiens, UniProt P23458); conditions: 1 μM
T9 construct: JAK1(JH1domain-catalytic); purchased Ambit (KINOMEscan Max service)
Outline: as §1

JNK2 = target: T10, JNK2 (Homo sapiens, UniProt P45984); conditions: 1 μM
T10 construct: purchased Ambit Kinomescan (contract panel)
Outline: as §1

KIT(D816V) = target: T11, KIT(D816V) (Homo sapiens, UniProt P10721, D816V)
T11 construct: purchased Ambit (KINOMEscan Max service)
Outline: as §1

LIMK2 = target: T12, LIMK2 (Homo sapiens, UniProt P53671)
T12 construct: purchased Ambit Kinomescan (contract screening)
Outline: as §1

LYN = target: T13, LYN (Homo sapiens, UniProt P07948)
T13 construct: purchased Ambit Kinomescan (contract panel)
Outline: as §1

MAP3K2 = target: T14, MAP3K2 (Homo sapiens, UniProt Q9Y2U5)
T14 construct: purchased Ambit Kinomescan (contract panel)
Outline: as §1

MRCKA = MRCKA (Homo sapiens, UniProt Q5VT25)
Outline: as §1

MST4 = target: T15, MST4 (Homo sapiens, UniProt Q9P289)
T15 construct: DNA tag (qPCR read-out)
Outline: as §1

PCTK3 = PCTK3 (Homo sapiens, UniProt Q07002)
Outline: as §1

PIK3CA(I800L) = target: T16, PIK3CA(I800L) (Homo sapiens, UniProt P42336, I800L)
T16 construct: DNA tag (qPCR read-out)
Outline: as §1

PIK3CB = target: T17, PIK3CB (Homo sapiens, UniProt P42338)
T17 construct: DNA tag (qPCR read-out)
Outline: as §1

PIK4CB = target: T18, PIK4CB (Homo sapiens, UniProt Q9UBF8)
T18 construct: DNA tag (qPCR read-out)
Outline: as §1

PKAC-beta = target: T19, PKAC-beta (Homo sapiens, UniProt P22694)
T19 construct: purchased Ambit (KINOMEscan Max service)
Outline: as §1

PRKCD = target: T20, PRKCD (Homo sapiens, UniProt Q05655)
T20 construct: DNA tag (qPCR read-out)
Outline: as §1

PRKG1 = target: T21, PRKG1 (Homo sapiens, UniProt Q13976)
T21 construct: DNA tag (qPCR read-out)
Outline: as §1

[2] = target: T22, RSK3(Kin.Dom.1-N-terminal) (Homo sapiens, UniProt Q15349)
T22 construct: RSK3(Kin.Dom.1-N-terminal); DNA tag (qPCR read-out)
Outline: as §1

SBK1 = target: T23, SBK1 (Homo sapiens, UniProt Q52WX2)
T23 construct: purchased Ambit (KINOMEscan Max service)
Outline: as §1

SRC = target: T24, SRC (Homo sapiens, UniProt P12931)
T24 construct: purchased Ambit Kinomescan (contract screening)
Outline: as §1

SRPK3 = target: T25, SRPK3 (Homo sapiens, UniProt Q9UPE1)
T25 construct: DNA tag (qPCR read-out)
Outline: as §1

TLK2 = target: T26, TLK2 (Homo sapiens, UniProt Q86UE8)
T26 construct: purchased Ambit Kinomescan (contract screening service)
Outline: as §1

TRKA = target: T27, TRKA (Homo sapiens, UniProt P04629)
T27 construct: purchased Ambit Kinomescan (contract screening service)
Outline: as §1

VRK2 = VRK2 (Homo sapiens, UniProt Q86Y07)
Outline: as §1

ZAP70 = target: T28, ZAP70 (Homo sapiens, UniProt P43403)
T28 construct: purchased Ambit Kinomescan (contract screening service)
Outline: as §1

T27 sequence (P04629 33-796): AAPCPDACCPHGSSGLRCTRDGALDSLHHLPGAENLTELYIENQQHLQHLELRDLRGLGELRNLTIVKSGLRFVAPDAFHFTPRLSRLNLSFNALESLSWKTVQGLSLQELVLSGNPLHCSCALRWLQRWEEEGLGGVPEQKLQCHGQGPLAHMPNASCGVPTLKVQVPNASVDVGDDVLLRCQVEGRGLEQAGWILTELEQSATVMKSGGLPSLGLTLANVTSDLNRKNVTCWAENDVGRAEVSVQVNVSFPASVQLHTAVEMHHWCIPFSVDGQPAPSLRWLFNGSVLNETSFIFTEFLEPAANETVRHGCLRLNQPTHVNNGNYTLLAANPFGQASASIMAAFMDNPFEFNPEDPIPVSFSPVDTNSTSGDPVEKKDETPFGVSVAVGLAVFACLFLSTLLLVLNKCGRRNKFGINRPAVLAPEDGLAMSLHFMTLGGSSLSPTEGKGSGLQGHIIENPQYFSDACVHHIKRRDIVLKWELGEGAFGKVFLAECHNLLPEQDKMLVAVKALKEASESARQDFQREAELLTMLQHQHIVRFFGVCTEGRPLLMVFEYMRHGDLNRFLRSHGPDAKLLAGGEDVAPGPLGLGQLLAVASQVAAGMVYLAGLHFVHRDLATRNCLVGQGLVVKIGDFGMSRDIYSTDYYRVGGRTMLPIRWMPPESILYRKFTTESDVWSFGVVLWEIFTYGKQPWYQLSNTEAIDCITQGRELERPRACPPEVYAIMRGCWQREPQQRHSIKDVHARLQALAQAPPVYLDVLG
T1 sequence (P36894 24-532): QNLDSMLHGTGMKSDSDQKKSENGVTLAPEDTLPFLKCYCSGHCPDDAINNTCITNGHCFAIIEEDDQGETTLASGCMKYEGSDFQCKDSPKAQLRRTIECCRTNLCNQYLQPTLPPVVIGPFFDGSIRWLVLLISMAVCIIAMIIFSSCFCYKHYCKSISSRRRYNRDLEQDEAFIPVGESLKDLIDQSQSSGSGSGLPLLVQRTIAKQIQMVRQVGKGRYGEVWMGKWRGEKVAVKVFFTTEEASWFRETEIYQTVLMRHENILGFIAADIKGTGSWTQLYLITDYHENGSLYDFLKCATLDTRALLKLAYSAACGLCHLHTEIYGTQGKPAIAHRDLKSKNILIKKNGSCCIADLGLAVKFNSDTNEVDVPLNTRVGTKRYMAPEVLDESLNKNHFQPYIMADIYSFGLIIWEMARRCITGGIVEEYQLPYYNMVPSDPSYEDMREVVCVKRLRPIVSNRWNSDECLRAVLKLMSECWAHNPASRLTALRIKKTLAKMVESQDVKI
T20 sequence (Q05655 whole entry): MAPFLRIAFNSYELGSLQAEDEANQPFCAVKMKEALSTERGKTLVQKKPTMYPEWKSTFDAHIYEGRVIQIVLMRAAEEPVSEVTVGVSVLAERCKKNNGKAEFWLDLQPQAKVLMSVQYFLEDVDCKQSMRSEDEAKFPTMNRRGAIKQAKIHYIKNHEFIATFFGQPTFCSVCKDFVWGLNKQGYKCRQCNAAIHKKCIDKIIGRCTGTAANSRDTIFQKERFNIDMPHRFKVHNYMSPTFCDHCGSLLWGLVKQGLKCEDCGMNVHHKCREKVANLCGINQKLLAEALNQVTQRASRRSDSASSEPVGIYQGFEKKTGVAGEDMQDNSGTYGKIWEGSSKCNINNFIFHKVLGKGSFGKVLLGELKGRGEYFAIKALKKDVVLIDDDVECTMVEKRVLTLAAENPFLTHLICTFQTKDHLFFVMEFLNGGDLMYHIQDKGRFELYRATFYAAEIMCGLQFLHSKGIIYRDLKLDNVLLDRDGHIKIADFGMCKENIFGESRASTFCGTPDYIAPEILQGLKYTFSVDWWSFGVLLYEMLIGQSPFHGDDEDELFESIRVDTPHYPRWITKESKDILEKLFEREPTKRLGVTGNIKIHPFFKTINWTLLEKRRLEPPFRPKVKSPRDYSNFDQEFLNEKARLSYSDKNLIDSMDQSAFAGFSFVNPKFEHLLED
T5 sequence (P22607 23-806 G697C): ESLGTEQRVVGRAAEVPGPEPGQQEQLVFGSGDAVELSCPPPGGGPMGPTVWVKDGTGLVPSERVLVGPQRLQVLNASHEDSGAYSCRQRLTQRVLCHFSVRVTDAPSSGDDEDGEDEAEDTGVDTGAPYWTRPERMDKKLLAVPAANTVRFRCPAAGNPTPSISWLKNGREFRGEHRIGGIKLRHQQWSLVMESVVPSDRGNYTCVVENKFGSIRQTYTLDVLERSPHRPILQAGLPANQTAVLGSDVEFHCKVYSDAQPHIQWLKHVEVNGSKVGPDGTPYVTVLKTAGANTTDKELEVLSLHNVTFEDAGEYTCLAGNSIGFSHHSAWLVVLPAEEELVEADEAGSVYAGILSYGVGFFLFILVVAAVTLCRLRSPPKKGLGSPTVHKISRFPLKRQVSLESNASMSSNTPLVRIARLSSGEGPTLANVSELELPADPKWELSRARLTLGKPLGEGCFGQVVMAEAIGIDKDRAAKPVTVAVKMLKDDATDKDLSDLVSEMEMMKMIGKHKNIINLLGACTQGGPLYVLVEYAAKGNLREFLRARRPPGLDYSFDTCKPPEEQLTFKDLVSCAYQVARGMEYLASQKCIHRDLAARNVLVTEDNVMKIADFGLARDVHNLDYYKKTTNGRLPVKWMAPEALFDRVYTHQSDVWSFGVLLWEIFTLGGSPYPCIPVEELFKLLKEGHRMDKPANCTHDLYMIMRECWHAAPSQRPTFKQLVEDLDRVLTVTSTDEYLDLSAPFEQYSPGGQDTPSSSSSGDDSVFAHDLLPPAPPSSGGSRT
T6 sequence (P22455 22-802): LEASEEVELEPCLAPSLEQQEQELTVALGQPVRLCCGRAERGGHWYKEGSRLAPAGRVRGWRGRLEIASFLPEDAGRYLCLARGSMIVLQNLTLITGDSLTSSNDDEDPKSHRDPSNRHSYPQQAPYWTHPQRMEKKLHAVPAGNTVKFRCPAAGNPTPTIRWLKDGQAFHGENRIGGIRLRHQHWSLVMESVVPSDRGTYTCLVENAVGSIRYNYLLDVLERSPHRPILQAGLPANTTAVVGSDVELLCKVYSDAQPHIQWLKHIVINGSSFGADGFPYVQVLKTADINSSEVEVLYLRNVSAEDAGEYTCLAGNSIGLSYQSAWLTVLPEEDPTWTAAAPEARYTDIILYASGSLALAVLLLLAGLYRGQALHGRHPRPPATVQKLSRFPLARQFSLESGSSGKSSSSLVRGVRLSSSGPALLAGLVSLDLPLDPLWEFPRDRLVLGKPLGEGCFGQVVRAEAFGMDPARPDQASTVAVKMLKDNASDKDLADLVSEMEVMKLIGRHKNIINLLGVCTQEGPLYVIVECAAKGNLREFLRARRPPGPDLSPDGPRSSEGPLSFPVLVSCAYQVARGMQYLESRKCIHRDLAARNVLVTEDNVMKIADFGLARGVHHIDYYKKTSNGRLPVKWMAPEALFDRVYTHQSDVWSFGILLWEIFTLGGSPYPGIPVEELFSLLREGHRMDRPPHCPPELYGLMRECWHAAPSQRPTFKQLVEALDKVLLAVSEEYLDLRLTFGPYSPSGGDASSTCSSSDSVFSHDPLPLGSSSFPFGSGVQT
Sequence of DAPK3 (O43293 whole entry): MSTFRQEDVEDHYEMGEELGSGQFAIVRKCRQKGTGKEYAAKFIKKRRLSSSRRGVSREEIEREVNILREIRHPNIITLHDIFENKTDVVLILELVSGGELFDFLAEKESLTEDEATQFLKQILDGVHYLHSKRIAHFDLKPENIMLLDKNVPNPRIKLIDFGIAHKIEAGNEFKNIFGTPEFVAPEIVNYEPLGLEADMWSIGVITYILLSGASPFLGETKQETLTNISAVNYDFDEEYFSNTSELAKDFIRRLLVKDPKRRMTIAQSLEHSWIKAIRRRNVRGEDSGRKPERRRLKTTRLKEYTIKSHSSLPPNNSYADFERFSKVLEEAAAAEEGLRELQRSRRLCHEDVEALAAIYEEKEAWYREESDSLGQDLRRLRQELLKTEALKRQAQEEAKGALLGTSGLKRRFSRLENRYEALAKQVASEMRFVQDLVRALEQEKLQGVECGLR
T15 sequence (Q9P289 whole entry): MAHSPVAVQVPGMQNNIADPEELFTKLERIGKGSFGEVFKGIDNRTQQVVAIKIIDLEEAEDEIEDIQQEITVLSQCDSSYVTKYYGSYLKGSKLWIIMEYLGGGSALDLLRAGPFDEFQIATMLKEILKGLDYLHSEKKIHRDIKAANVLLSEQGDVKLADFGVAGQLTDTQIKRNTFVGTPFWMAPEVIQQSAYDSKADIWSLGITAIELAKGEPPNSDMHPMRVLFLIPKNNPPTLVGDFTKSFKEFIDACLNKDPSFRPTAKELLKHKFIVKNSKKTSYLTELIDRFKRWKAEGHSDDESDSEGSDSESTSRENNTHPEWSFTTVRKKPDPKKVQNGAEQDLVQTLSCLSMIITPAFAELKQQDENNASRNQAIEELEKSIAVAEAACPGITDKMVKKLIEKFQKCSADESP
T24 sequence (P12931 whole entry): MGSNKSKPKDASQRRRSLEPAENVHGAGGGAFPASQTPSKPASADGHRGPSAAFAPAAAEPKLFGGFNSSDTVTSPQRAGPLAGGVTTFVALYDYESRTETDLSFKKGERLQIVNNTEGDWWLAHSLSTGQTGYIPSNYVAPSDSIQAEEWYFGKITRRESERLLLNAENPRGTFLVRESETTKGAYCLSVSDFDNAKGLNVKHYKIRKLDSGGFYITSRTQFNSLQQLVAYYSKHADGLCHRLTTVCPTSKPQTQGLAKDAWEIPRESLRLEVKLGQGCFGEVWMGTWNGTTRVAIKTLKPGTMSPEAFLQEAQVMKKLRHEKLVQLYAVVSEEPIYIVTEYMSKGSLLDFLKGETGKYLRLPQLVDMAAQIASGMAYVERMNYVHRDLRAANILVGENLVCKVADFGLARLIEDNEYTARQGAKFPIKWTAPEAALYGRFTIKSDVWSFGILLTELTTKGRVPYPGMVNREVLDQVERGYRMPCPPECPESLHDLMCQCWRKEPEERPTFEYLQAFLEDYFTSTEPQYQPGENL

With `NCCCNc1nc2c(Br)c(Br)c(Br)c(Br)c2[nH]1` [Compound 11, N-(3-aminopropyl)-4,5,6,7-tetrabromo-1H-benzo[d]imidazol-2-amine] the remaining binding at 1 µM (BMPR1A) was 100%, the “% binding” value (CDK3) was 74% and the remaining binding at 1 µM (CDKL2) was 85%. The remaining binding at 1 µM (CHEK2) was 80%, the remaining binding at 1 µM (DAPK3) was 73% and the remaining binding at 1 µM (DCAMKL3) was 100%. The “% binding” value (EPHA5) was 100%, the remaining binding at 1 µM (FGFR3(G697C)) was 100% and the remaining binding at 1 µM (FGFR4) was 84%. For the same molecule, the remaining binding at 1 µM (FLT3(D835H)) was 58%, the remaining binding at 1 µM (HIPK4) was 53% and the “% binding” value [1] was 86%. For the same molecule, the “% binding” value (JNK2) was 100%, the remaining binding at 1 µM (KIT(D816V)) was 60% and the remaining binding at 1 µM (LIMK2) was 96%. It also gave a remaining binding at 1 µM (LYN) of 100%, a remaining binding at 1 µM (MAP3K2) of 100% and a remaining binding at 1 µM (MRCKA) of 100%. For the same molecule, the remaining binding at 1 µM (MST4) was 87%, the remaining binding at 1 µM (PCTK3) was 92% and the remaining binding at 1 µM (PIK3CA(I800L)) was 100%. The remaining binding at 1 µM (PIK3CB) was 100%, the remaining binding at 1 µM (PIK4CB) was 100% and the remaining binding at 1 µM (PKAC-beta) was 84%. It also gave a remaining binding at 1 µM (PRKCD) of 56%, a remaining binding at 1 µM (PRKG1) of 53% and a remaining binding at 1 µM [2] of 100%. It also gave a remaining binding at 1 µM (SBK1) of 59%, a remaining binding at 1 µM (SRC) of 97% and a remaining binding at 1 µM (SRPK3) of 100%. The remaining binding at 1 µM (TLK2) was 100%, the remaining binding at 1 µM (TRKA) was 100% and the remaining binding at 1 µM (VRK2) was 79%. It also gave a remaining binding at 1 µM (ZAP70) of 100%.
